For one cell line, relative viability results are on record in the supplement of paper PMC10307832.

Holding throughout (experiment): relative viability (nuclei count vs DMSO), 5 days (fraction); higher = more cells survive
Compound in assay [1]: CC1(COc2ccc3c(c2)ncn3-c2ccc3cccc(N4CCC(N)CC4)c3n2)COC1 [Crenolanib] + CS(=O)(=O)CCNCc1ccc(-c2ccc3ncnc(Nc4ccc(OCc5cccc(F)c5)c(Cl)c4)c3c2)o1 [Lapatinib] (partner 2 µM)
In a few lines:
(§1)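 Nuclei were stained with Hoechst during a one-step fixation (final 0.05% Triton X-100, 1% formaldehyde, 1 ug/ml Hoechst) carried out 5 days after dosing, then counted on 4× images. The cells, lung cancer lines in 1536-well plates, had been dosed by pin tool the day after seeding with one drug alone or a fixed anchor-drug dose plus five library-drug doses (not always all listed) in √10 steps. Relative viability is the nuclei count in treated wells divided by that in vehicle wells, and each value is the median of duplicate plates.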

Compound in assay [2]: O=C1NC(=O)[C@@H](c2cn3c4c(cccc24)CCC3)[C@@H]1c1c[nH]c2ccccc12 [Tivantinib] + CC1(C)CCC(c2ccc(Cl)cc2)=C(CN2CCN(c3ccc(C(=O)NS(=O)(=O)c4ccc(N[C@H](CCN5CCOCC5)CSc5ccccc5)c(S(=O)(=O)C(F)(F)F)c4)cc3)CC2)C1 [Navitoclax] (partner 0.5 µM)
In a few lines: as §1

Compound in assay [3]: O=C1NC(=O)[C@@H](c2cn3c4c(cccc24)CCC3)[C@@H]1c1c[nH]c2ccccc12 [Tivantinib] + Nc1nc2[nH]cc(CCc3ccc(C(=O)N[C@@H](CCC(=O)O)C(=O)O)cc3)c2c(=O)[nH]1 [Pemetrexed] (partner 0.2 µM)
In a few lines:
as §1

Compound in assay [4]: O=C1NC(=O)[C@@H](c2cn3c4c(cccc24)CCC3)[C@@H]1c1c[nH]c2ccccc12 [Tivantinib] + CS(=O)(=O)N1CCN(Cc2cc3nc(-c4cccc5[nH]ncc45)nc(N4CCOCC4)c3s2)CC1 [Pictilisib] (partner 1 µM)
A digest of the protocol: as §1

Turning to UMC-11, the relative viability came to 0.955 in assay [1] (first compound 0.01 µM); 1.04 in assay [1] (first compound 0.03162 µM); 0.895 in assay [1] (first compound 0.1 µM); 0.985 in assay [1] (first compound 0.3162 µM); 0.95 in assay [1] (first compound 1 µM); 0.316 in assay [2] (first compound 0.01 µM). In addition, the relative viability is 0.334 in assay [2] (first compound 0.03162 µM); 0.29 in assay [2] (first compound 0.1 µM); 0.34 in assay [2] (first compound 0.3162 µM); 0.772 in assay [3] (first compound 0.01 µM); 0.759 in assay [3] (first compound 0.03162 µM); 0.75 in assay [3] (first compound 0.1 µM). The relative viability in assay [3] (first compound 0.3162 µM) came to 0.803; in assay [4] (first compound 0.01 µM), 0.733; in assay [4] (first compound 0.03162 µM), 0.423; in assay [4] (first compound 0.1 µM), 0.75; in assay [4] (first compound 0.3162 µM), 0.954.
